Experimental data reported in patent US8329904B2, “Azacyclic derivatives” (Hoffmann-La Roche Inc., priority 2009, dated 2012).

What follows are compounds tested against T1, human HSL (Homo sapiens, UniProt Q05469) (assay: Human Hormone-Sensitive Lipase (HSL) Enzyme Inhibition Assay). Settings: colorimetric assay, 2,3-dimercapto-1-propanol tributyrate (DMPT) substrate, 37° C. for 20 minutes, absorbance at 405 nm; read-out: HSL hum IC50.
T1 construct: overlapping PCR to generate a full length human HSL ORF with a 3′-His6 tag; His6 (C); made in house; host or cells: High 5 insect cells (baculovirus, pFast-BAC)
T1 sequence (Q05469 1-1076): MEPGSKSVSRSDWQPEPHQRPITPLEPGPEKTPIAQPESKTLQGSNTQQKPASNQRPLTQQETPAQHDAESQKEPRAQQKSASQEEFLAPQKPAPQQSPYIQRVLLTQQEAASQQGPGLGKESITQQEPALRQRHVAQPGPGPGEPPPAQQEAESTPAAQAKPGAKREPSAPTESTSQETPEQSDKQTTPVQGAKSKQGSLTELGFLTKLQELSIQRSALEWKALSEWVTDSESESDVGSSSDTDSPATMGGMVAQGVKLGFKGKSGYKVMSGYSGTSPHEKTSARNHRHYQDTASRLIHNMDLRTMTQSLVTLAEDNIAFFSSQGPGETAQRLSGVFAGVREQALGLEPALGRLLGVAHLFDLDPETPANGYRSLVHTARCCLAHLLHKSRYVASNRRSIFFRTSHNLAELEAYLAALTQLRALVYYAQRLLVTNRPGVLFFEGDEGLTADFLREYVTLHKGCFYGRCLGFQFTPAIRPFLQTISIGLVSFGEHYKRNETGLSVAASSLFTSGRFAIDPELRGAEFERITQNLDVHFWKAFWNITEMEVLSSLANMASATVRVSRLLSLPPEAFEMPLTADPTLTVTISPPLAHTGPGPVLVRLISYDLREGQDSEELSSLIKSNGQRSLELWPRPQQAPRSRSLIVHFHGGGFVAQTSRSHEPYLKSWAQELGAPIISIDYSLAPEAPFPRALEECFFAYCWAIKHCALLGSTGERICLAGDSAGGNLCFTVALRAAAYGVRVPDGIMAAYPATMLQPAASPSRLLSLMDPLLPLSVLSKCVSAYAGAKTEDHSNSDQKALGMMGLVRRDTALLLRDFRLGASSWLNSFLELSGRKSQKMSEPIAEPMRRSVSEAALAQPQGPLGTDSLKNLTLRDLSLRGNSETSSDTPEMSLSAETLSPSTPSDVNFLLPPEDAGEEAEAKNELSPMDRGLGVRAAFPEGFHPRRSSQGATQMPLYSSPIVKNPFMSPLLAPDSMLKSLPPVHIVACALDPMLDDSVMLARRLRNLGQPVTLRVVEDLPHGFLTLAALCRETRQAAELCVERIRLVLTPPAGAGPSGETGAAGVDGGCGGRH
Format: biochemical
Protocol: Production of Human Full Length Hormone Sensitive Lipase-His^6
1) Cloning: cDNA was prepared from commercial human brain polyA-+ RNA and used as a template in overlapping PCR to generate a full length human HSL ORF with a 3′-His6 tag. This full length insert was cloned into the pFast-BAC vector and the DNA-sequence of several single clones was verified. DNA from a correct full length clone with the 3′His6 tag was used to transform the E. coli strain DH10BAC. Resulting bacmid DNA was used to generate a titered baculovirus stock for protein generation.
Cells were thawed. […] was done at 3×30 sec., Lubrol PX was added to 0.2% final concentration followed by stirring for 15 min. at 4° C. and centrifugation at 25 k×g, 60 min., 4° C. […] Supernatant was removed, the resin washed in the centrifuge vessel using 5 volumes of Base Buffer containing 0.2% Lubrol PX. Centrifugation was done again, then the supernatant discarded. The resin wass poured onto a 0.8 μm membrane in a disposable filter unit (Nalge 450-0080), and washed with 5 volumes of Base Buffer containing 0.2% Lubrol PX. It was then washed with 30 volumes of Base Buffer containing 60 mM imidazole pH 7.5 at 4° C. The protein was eluated with 5 volumes of 25 mM Tris-Cl, 300 mM NaCl, 200 mM imidazole, 10 mM 2-mercaptoethanol, pH 7.5 at 4° C. by tumbling resin with buffer end-over-end, 30 min., 4° C. The resin was captured on a 0.2 μm membrane disposable filter unit (Millipore SCGP U02 RE) and the eluate collected in the reservoir. The eluate was concentrated using a 30 k MWCO centrifugal filter device (Sartorius Vivascience Vivacell 100, VC1022), to 20 ml. It was then dialyzed overnight at 4° C., two times against 2 L of 10% glycerol, 25 mM Tris-Cl, 300 mM NaCl, 0.2 mM EDTA, 0.2 mM DTT, pH 7.5 at 4° C. The protein was filtered using a 0.22 μm disposable filter unit (Millipore SCGP00525). The protein concentration was calculated from absorbance at 280 nm, using 280=0.67 cm-1 mg-1. […] The protein was stored at −80° C.
Human Hormone-Sensitive Lipase (HSL) Enzyme Inhibition Assay:
HSL enzyme activity was measured by a colorimetric assay using 2,3-dimercapto-1-propanol tributyrate (Aldrich, St. Louis, Mo.) as a substrate. Typically, 1.5 mM 2,3-dimercapto-1-propanol tributyrate (DMPT) in 100 mM MOPS, pH 7.2, 0.2 mg/ml fatty acid-free BSA was prepared by sonication at 4° C. to homogenous suspension. Test compounds (2 mM stock in DMSO) were diluted 3 fold in series in DMSO. Compound solutions were diluted 24 fold in 1.5 mM DMPT containing solution and 18 ul per well was added to 384-well microplates (Corning Costar). Twelve microliters per well of human HSL (15 ug/ml) was added and the reaction mixture was incubated at 37° C. for 20 minutes. Six microliters of 12 mM dithio-bis-(2-nitrobenzoic acid) (DTNB) in DMSO plus 1.2% SDS and 0.6% Triton X-100 were added and the mixture was incubated at room temperature for 15 minutes. Product production was monitored by reading absorbance at 405 nm on an Envision Reader (PerkinElmer Life and Analytical Sciences, Shelton, Conn.).

Row | IC50 [µM] | Structure (SMILES)
1 | 0.2 | O=C(N1CCCC1)N1CCC2(CC1)CCN(c1ccc(OC(F)(F)F)cc1)C2=O [Example 265, 8-(Pyrrolidine-1-carbonyl)-2-(4-trifluoromethoxy-phenyl)-2,8-diaza-spiro[4.5]decan-1-one]
2 | 0.06 | O=C1N(c2ccc3c(c2)OC(F)(F)O3)CCC12CCN(S(=O)(=O)c1ccccc1Cl)CC2 [Example 228, 8-(2-Chloro-benzenesulfonyl)-2-(2,2-difluoro-benzo[1,3]-dioxol-5-yl)-2,8-diaza-spiro[4.5]decan-1-one]
3 | 0.16 | CCc1ccc(N2CCC3(CCN(C(=O)NCCc4ccccc4)CC3)C2=O)cc1 [Example 263, 2-(4-Ethyl-phenyl)-1-oxo-2,8-diaza-spiro[4.5]decane-8-carboxylic acid phenethyl-amide]
4 | 0.12 | O=C1N(c2ccc(C(F)(F)F)cc2)CCCC12CCN(S(=O)(=O)c1ccccc1Cl)CC2 [Example 158, 9-(2-Chloro-benzenesulfonyl)-2-(4-trifluoromethyl-phenyl)-2,9-diaza-spiro[5.5]undecan-1-one]
5 | 0.04 | CCN(C(=O)N1CCC2(CC1)CCN(c1ccc(OC(F)(F)F)cc1)C2=O)c1ccccc1 [Example 279, 1-Oxo-2-(4-trifluoromethoxy-phenyl)-2,8-diaza-spiro[4.5]decane-8-carboxylic acid ethyl-phenyl-amide]
6 | 0.11 | CN(CCc1ccccc1)S(=O)(=O)N1CCC2(CCN(c3ccc(OC(F)(F)F)cc3)C2=O)CC1 [Example 297, 1-Oxo-2-(4-trifluoromethoxy-phenyl)-2,8-diaza-spiro[4.5]decane-8-sulfonic acid methyl-phenethyl-amide]
7 | 0.4 | CC(C)NC(=O)N1CCC2(CC1)CCN(c1ccc(OC(F)(F)F)cc1)C2=O [Example 254, 1-Oxo-2-(4-trifluoromethoxy-phenyl)-2,8-diaza-spiro[4.5]decane-8-carboxylic acid isopropylamide]
8 | 0.02 | O=C1N(c2ccc(C(O)C(F)(F)F)cc2)CCC12CCN(S(=O)(=O)c1ccccc1Cl)CC2 (stereo not shown) [Example 152, 8-(2-Chloro-benzenesulfonyl)-2-[4-(2,2,2-trifluoro-1-hydroxy-ethyl)-phenyl]-2,8-diaza-spiro[4.5]decan-1-one]
9 | 0.14 | CCN(CCOC)C(=O)N1CCC2(CC1)CCN(c1ccc(OC(F)(F)F)cc1)C2=O [Example 274, 1-Oxo-2-(4-trifluoromethoxy-phenyl)-2,8-diaza-spiro[4.5]decane-8-carboxylic acid ethyl-(2-methoxy-ethyl)-amide]
10 | 0.04 | O=C1N(c2ccc(C(F)(F)F)cc2)CCC12CCN(S(=O)(=O)c1ccccc1Cl)CC2 [Example 179, 8-(2-Chloro-benzenesulfonyl)-2-(4-trifluoromethyl-phenyl)-2,8-diaza-spiro[4.5]decan-1-one]

Further lines, the compound ahead of its results:

Row | Structure (SMILES) | IC50 [µM]
11 | CCc1ccc(N2CCC3(CCN(S(=O)(=O)c4ccc(F)cc4C(F)(F)F)CC3)C2=O)cc1 [Example 75, 2-(4-Ethyl-phenyl)-8-(4-fluoro-2-trifluoromethyl-benzenesulfonyl)-2,8-diaza-spiro[4.5]decan-1-one] | 0.26
12 | O=C1N(c2ccc(OC3CCCC3)cc2)CCC12CCN(S(=O)(=O)c1ccccc1Cl)CC2 [Example 128, 8-(2-Chloro-benzenesulfonyl)-2-(4-cyclopentyloxy-phenyl)-2,8-diaza-spiro[4.5]decan-1-one] | 0.02
13 | CC(C)(C)CS(=O)(=O)N1CCC2(CCN(c3ccc(OC(F)(F)F)cc3)C2=O)CC1 [Example 19, 8-(2,2-Dimethyl-propane-1-sulfonyl)-2-(4-trifluoromethoxy-phenyl)-2,8-diaza-spiro[4.5]decan-1-one] | 0.04
14 | O=C1N(c2ccc(OCC(F)(F)F)nc2)CCC12CCN(S(=O)(=O)c1ccccc1Cl)CC2 [Example 119, 8-(2-Chloro-benzenesulfonyl)-2-[6-(2,2,2-trifluoro-ethoxy)-pyridin-3-yl]-2,8-diaza-spiro[4.5]decan-1-one] | 0.05
15 | COCC(C)(C)c1ccc(N2CCC3(CCN(S(=O)(=O)CC(C)C)CC3)C2=O)cc1 [Example 108, 2-[4-(2-Methoxy-1,1-dimethyl-ethyl)-phenyl]-8-(2-methyl-propane-1-sulfonyl)-2,8-diaza-spiro[4.5]decan-1-one] | 0.1
16 | CCC(C)c1ccc(N2CCC3(CCN(S(=O)(=O)c4ccc(C)s4)CC3)C2=O)cc1 (stereo not shown) [Example 45, 2-(4-sec-Butyl-phenyl)-8-(5-methyl-thiophene-2-sulfonyl)-2,8-diaza-spiro[4.5]decan-1-one] | 0.06
17 | CC(C)(C)CS(=O)(=O)N1CCC2(CCN(c3ccc(OCCC(F)(F)F)cc3)C2=O)CC1 [Example 139, 8-(Neopentylsulfonyl)-2-(4-(3,3,3-trifluoropropoxy)phenyl)-2,8-diazaspiro[4.5]decan-1-one] | 0.31
18 | CS(=O)(=O)Oc1ccc(N2CCC3(CCN(S(=O)(=O)c4ccccc4OC(F)(F)F)CC3)C2=O)cc1 [Example 56, Methanesulfonic acid 4-[1-oxo-8-(2-trifluoromethoxy-benzenesulfonyl)-2,8-diaza-spiro[4.5]dec-2-yl]-phenyl ester] | 0.02
19 | COCC(C)(C)c1ccc(N2CCC3(CCN(S(=O)(=O)c4c(C)noc4C)CC3)C2=O)cc1 [Example 112, 8-(3,5-Dimethyl-isoxazole-4-sulfonyl)-2-[4-(2-methoxy-1,1-dimethyl-ethyl)-phenyl]-2,8-diaza-spiro[4.5]decan-1-one] | 0.27
20 | CC(Oc1ccc(N2CCC3(CCN(S(=O)(=O)CC(C)(C)C)CC3)C2=O)cc1)C(F)(F)F (racemic) [Example 22, (rac)-8-(2,2-Dimethyl-propane-1-sulfonyl)-2-[4-(2,2,2-trifluoro-1-methyl-ethoxy)-phenyl]-2,8-diaza-spiro[4.5]decan-1-one] | 0.13
21 | CC(C)(C)CCC(=O)N1CCC2(CC1)CCN(c1ccc(OC(F)(F)F)cc1)C2=O [Example 14, 8-(4,4-Dimethyl-pentanoyl)-2-(4-trifluoromethoxy-phenyl)-2,8-diaza-spiro[4.5]decan-1-one] | 0.17
22 | CC(C)Oc1ccc(N2CCC3(CCN(S(=O)(=O)N4CCOCC4)CC3)C2=O)cc1 [Example 15, 2-(4-Isopropoxy-phenyl)-8-(morpholine-4-sulfonyl)-2,8-diaza-spiro[4.5]decan-1-one] | 0.36
